Data reported in patent US8541419B2, “Isotopically enriched pyrimidin-5-yl acetic acid derivatives as CRTH2 antagonists” (Actimis Pharmaceuticals, Inc., priority 2008, dated 2013).
Where “and” joins values, the source holds several entries; their conditions need not be identical. Equal entries are not always repeated. Marks after values point to notes of the source that are not given here.

Experiments:
[1] = Pharmacokinetics in male Han Wistar rats after simultaneous intravenous administration; assay type: in vivo; parameters: AUC0-t / AUC0-∞: concentration or dose not given beside the values
Excerpt: (§1) The pharmacokinetics and bioavailability of [4,6-bis([^2H6]dimethylamino)-2-(4-{[4-(trifluoromethyl)benzoyl]amino}benzyl)pyrimidin-5-yl]acetic acid (1) and [4,6-bisdimethylamino)-2-(4-{[4-(trifluoromethyl)benzoyl]amino}benzyl)pyrimidin-5-yl]acetic acid (“the undeuterated analog”) were compared in male Han Wistar rats after intravenous (“IV”) and oral (“PO”) administration.
(§2) The following additional acronyms and definitions are used in the study: • AUC0-∞—area under the plasma concentration time curve from time 0 to infinity • AUC0-t—area under the plasma concentration time curve from time 0 to the last quantifiable timepoint • AUMC—area under the first moment curve • CL—total plasma clearance • Cmax—maximum plasma concentration • MRT—mean residence time • PEG—polyethylene glycol • t½—elimination half-life • tmax—time of maximum plasma concentration • Vss—steady-state volume of distribution
(§3) Compound 1 (1.02 mg/kg) and the undeuterated analog (1.0 mg/kg) and were administered simultaneously as a solution in PEG 400:ethanol:water (40:10:50) both intravenously and orally (by gavage) to four male rats per dose route. The doses were equivalent on a molar basis. Blood samples were collected serially up to 48 h postdose. […] Noncompartmental pharmacokinetic parameters were calculated and the results compared statistically using paired t-tests, since the simultaneous administration of both compounds allows each rat to serve as its own control.

CRTH2 = biological target: T1, CRTH2 (Homo sapiens, UniProt Q9Y5Y4); experiment: Biological inhibitory activity in vitro
T1 sequence (Q9Y5Y4 1-395): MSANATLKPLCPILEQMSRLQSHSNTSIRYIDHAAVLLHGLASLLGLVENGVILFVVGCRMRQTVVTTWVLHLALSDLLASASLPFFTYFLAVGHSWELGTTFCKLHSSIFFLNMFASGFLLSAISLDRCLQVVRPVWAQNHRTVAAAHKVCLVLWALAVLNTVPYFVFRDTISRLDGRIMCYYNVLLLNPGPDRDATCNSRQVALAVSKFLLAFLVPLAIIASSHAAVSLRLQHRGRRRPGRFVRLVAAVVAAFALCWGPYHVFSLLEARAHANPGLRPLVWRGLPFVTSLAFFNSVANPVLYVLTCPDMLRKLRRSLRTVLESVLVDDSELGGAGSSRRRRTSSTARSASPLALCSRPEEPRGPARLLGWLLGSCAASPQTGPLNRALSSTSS

[2] = Pharmacokinetics and bioavailability in male Han Wistar rats after simultaneous oral administration; assay type: in vivo; parameters: AUC0-t / AUC0-∞: concentration or dose not given beside the values
Excerpt: as §1, §2, §3

[3] = male, Han Wistar, rat, in vivo, iv
[4] = male, Han Wistar, rat, in vivo, po
[5] = IV, individual rats, listed as H
[6] = oral, individual rats, listed as H

SMILES: [2H]C([2H])([2H])N(c1nc(Cc2ccc(NC(=O)c3ccc(C(F)(F)F)cc3)cc2)nc(N(C([2H])([2H])[2H])C([2H])([2H])[2H])c1CC(=O)O)C([2H])([2H])[2H] [Compound 1, [4,6-bis([^2H6]dimethylamino)-2-(4-{[4-(trifluoromethyl)benzoyl]amino}benzyl)pyrimidin-5-yl]acetic acid]
- AUC0-∞ higher than that of the undeuterated analog [1, 3]: 28%
- Extrapolated area of AUC0-∞, averaged, of total area [1, 3]: < 0.15%
- clearance as percent of that of the undeuterated analog [1, 3]: 80%
- clearance relative to the unlabeled drug ([1]; rat, in vivo): reduced clearance
- plasma concentrations compared with the undeuterated analog ([1]; rat, in vivo, iv): greater than those of the undeuterated analog
- biological inhibitory activity in vitro compared to the undeuterated analog (CRTH2): comparable
- AUC0-t higher than that of the undeuterated analog [2, 4]: 71%
- AUC0-∞ higher than that of the undeuterated analog [2, 4]: 63%
- Cmax higher than that of the undeuterated analog [2, 4]: 42%
- Extrapolated area of AUC0-∞, averaged, of total area [2, 4]: < 1.5%
- tmax ([2]; male, Han Wistar, rat, in vivo, po, 1.02 mg/kg): 1 h
- MRT ([2]; male, Han Wistar, rat, in vivo, po, 1.02 mg/kg, MRT): 2.61 ± 0.708 h
- tmax ([2]; male, Han Wistar, rat, in vivo, po, 1.02 mg/kg, tmax): 0.5 h
- Bioavailability ([2]; male, Han Wistar, rat, in vivo, po, Bioavailability): 52.5%
- bioavailability relative to the unlabeled drug ([2]; rat, in vivo): better bioavailability
- plasma concentrations compared with the undeuterated analog ([2]; rat, in vivo, po): greater than those of the undeuterated analog

SMILES: CN(C)c1nc(Cc2ccc(NC(=O)c3ccc(C(F)(F)F)cc3)cc2)nc(N(C)C)c1CC(=O)O [Undeuterated Analog, reference compound]
- Plasma Concentrations ([1]; IV, 8 h, individual rats): 64.0 ng/mL and 173 ng/mL and 88.4 ng/mL and 12.0 ng/mL
- Plasma Concentrations ([1]; IV, 8 h, mean): 84.4 ng/mL
- Plasma Concentrations ([1]; IV, 24 h, individual rats): 12.0 ng/mL and 4.78 ng/mL and 3.29 ng/mL and <1.00 ng/mL
- Plasma Concentrations ([1]; IV, 24 h, mean): 5.02 ng/mL
- Plasma Concentrations ([1]; IV, 48 h, individual rats): 1.01 ng/mL
- t1/2 ([1]; IV, harmonic mean N=4, listed as H): 3.23 ± 1.99 h and 3.23^b h
- AUC0-t [1, 5]: 14,700 nM · h and 23,300 nM · h and 24,300 nM · h and 9,020 nM · h
- AUC0-∞ [1, 5]: 14,700 nM · h and 23,300 nM · h and 24,400 nM · h and 9,090 nM · h
- CL [1, 5]: 2.25 mL/min/kg and 1.43 mL/min/kg and 1.36 mL/min/kg and 3.66 mL/min/kg
- MRT [1, 5]: 2.43 h and 2.20 h and 1.26 h and 0.569 h
- Vss [1, 5]: 0.328 L/kg and 0.189 L/kg and 0.103 L/kg and 0.125 L/kg
- t1/2 [1, 5]: 6.68 h and 3.12 h and 3.60 h and 2.03 h
- CL ([1]; IV, mean N=4, listed as H): 2.17 ± 1.07 mL/min/kg and 2.17 mL/min/kg
- MRT ([1]; IV, mean N=4, listed as H): 1.62 ± 0.861 h and 1.62 h
- Vss ([1]; IV, mean N=4, listed as H): 0.186 ± 0.101 L/kg and 0.186 L/kg
- Plasma Concentrations ([2]; oral, 0.25 h, individual rats): 959 ng/mL and 308 ng/mL and 1,520 ng/mL and 1,180 ng/mL and 1,910 nM and 614 nM and 3,030 nM and 2,350 nM
- Plasma Concentrations ([2]; oral, 0.25 h, mean): 992 ng/mL and 1980 nM
- Plasma Concentrations ([2]; oral, 0.5 h, individual rats): 1,060 ng/mL and 355 ng/mL and 2,940 ng/mL and 1,590 ng/mL and 2,110 nM and 708 nM and 5,860 nM and 3,170 nM
- Plasma Concentrations ([2]; oral, 0.5 h, mean): 1,490 ng/mL and 2960 nM
- Plasma Concentrations ([2]; oral, 1 h, individual rats): 744 ng/mL and 191 ng/mL and 3,180 ng/mL and 1,220 ng/mL and 1,480 nM and 381 nM and 6,340 nM and 2,430 nM
- Plasma Concentrations ([2]; oral, 1 h, mean): 1,330 ng/mL and 2660 nM
- Plasma Concentrations ([2]; oral, 2 h, individual rats): 463 ng/mL and 104 ng/mL and 1,290 ng/mL and 548 ng/mL and 923 nM and 207 nM and 2,570 nM and 1,090 nM
- Plasma Concentrations ([2]; oral, 2 h, mean): 601 ng/mL and 1200 nM
- Plasma Concentrations ([2]; oral, 4 h, individual rats): 68.4 ng/mL and 32.5 ng/mL and 559 ng/mL and 178 ng/mL and 64.8 nM and 1,120 nM and 355 nM
- Plasma Concentrations ([2]; oral, 4 h, mean): 209 ng/mL and 511 nM
- Plasma Concentrations ([2]; oral, 6 h, individual rats): 22.0 ng/mL and 24.1 ng/mL and 387 ng/mL and 93.3 ng/mL and 43.9 nM and 48.1 nM and 772 nM and 186 nM
- Plasma Concentrations ([2]; oral, 6 h, mean): 132 ng/mL and 262 nM
- Plasma Concentrations ([2]; oral, 8 h, individual rats): 12.3 ng/mL and 18.7 ng/mL and 217 ng/mL and 76.8 ng/mL and 24.5 nM and 37.3 nM and 433 nM and 153 nM
- Plasma Concentrations ([2]; oral, 8 h, mean): 81.2 ng/mL and 162 nM
- Plasma Concentrations ([2]; oral, 24 h, individual rats): <1.00 ng/mL and 2.99 ng/mL and 2.16 ng/mL and <1.99 nM and 5.96 nM and 4.31 nM
- Plasma Concentrations ([2]; oral, 24 h, mean): 1.29 ng/mL and 2.57 nM
- Plasma Concentrations ([2]; oral, 48 h, individual rats): <1.00 ng/mL and 1.57 ng/mL and <1.99 nM and 3.13 nM
- Plasma Concentrations ([2]; oral, 48 h, mean): 0.393 ng/mL and 0.783 nM
- t1/2 ([2]; oral, harmonic mean N=4, listed as H): 2.39 ± 2.11 h and 2.39^d h
- AUC0-t [2, 6]: 3,880 nM · h and 1,280 nM · h and 19,300 nM · h and 7,820 nM · h
- AUC0-∞ [2, 6]: 3,920 nM · h and 1,550 nM · h and 19,300 nM · h and 7,850 nM · h
- Bioavailability [2, 6]: 10.3% and 4.06% and 50.5% and 20.6%
- CL/F [2, 6]: 8.48 mL/min/kg and 21.5 mL/min/kg and 1.72 mL/min/kg and 4.23 mL/min/kg
- Cmax [2, 6]: 2.11 µM and 0.708 µM and 6.34 µM and 3.17 µM
- MRT [2, 6]: 1.40 h and 4.25 h and 3.36 h and 3.47 h
- t1/2 [2, 6]: 1.10 h and 5.02 h and 2.57 h and 5.63 h
- tmax [2, 6]: 0.5 h (3×) and 1 h
- Cmax ([2]; oral, mean N=4): 3.08 µM
- AUC0-t ([2]; oral, mean N=4, listed as H): 8,070 ± 7,950 nM · h and 8,070 nM · h
- AUC0-∞ ([2]; oral, mean N=4, listed as H): 8,160 ± 7,880 nM · h and 8,160 nM · h
- Bioavailability ([2]; oral, mean N=4, listed as H): 21.3%
- CL/F ([2]; oral, mean N=4, listed as H): 8.97^c ± 8.78^ mL/min/kg and 8.97 mL/min/kg
- MRT ([2]; oral, mean N=4, listed as H): 3.12 ± 1.21 h and 3.12 h
- Bioavailability ([2]; oral, mean N=4, listed as the undeuterated analog): 45.6%
- tmax ([2]; oral, median (range) N=4, listed as H): 0.5 (0.5-1.0)^e h and 0.5^a h
